Test results reported in US11938114B2, “Bacterial efflux pump inhibitors” (priority 2017, dated 2024).
Counter-ions that a name gives are not always drawn. Marks after values point to notes of the source that are not given here.

How the values were obtained:
P. aeruginosa ATCC 27853 [1] = test: Standard EPI assay: MIC of test antibiotic (levofloxacin, cefepime) in absence and presence of EPI; type: cell-based, Pseudomonas aeruginosa; details: for Enhanced Activity in P. aeruginosa (fold enhancement of antibiotic activity): levofloxacin as antibiotic, Pseudomonas aeruginosa ATCC 27853
Description: (§1) MIC assays were conducted in accordance with Clinical and Laboratory Standards Institute (CLSI) guidelines for broth microdilution.
(§2) The EPI assay for the purposes of these studies represents a MIC assay in which the MIC of the antibiotic against the bacteria is tested in the presence of an experimental efflux pump inhibitor (EPI). […] Using serial dilutions of the EPI, its enhancement of antibiotic activity was then evaluated. […] For the evaluation of the efficacy of an EPI against bacteria that were pre-exposed to an antibiotic, the inoculum of bacteria that used was developed from a bacterial culture isolated as a single colony following exposure at […] the MIC of the antibiotic (so as to induce efflux pump expression), was to be used in combination with the EPI.
(§3) The MIC of the test antibiotic is determined in the absence and presence of sub-inhibitory concentrations of the EPI. Initially, the sub-inhibitory concentration used was ½×MIC of the EPI. […] Similar methodology was employed to examine the synergy with Escherichia coli ATCC 25922 in the presence of varied concentrations of these EPIs using clarithromycin as the antibiotic.

[2] = system: Escherichia coli ATC 25922; test: Bacterial EPI assay: MIC of clarithromycin in the presence of EPI; type: cell-based; details: clarithromycin as antibiotic
Description: as §1, §2, §3

P. aeruginosa ATCC 27853 [3] = test: Intrinsic MIC assay (CLSI broth microdilution); type: cell-based; details: Pseudomonas aeruginosa, ATCC27853, read-out: intrinsic MIC of the EPI
Description: as §1
The intrinsic MIC of the experimental EPIs was tested with the method described. The 2-fold serial dilution begin with 100 μg/mL of tested compound in the first column of the 96-well plates.
The following Gram-negative bacterial strains were included in these assays: • Escherichia coli ATCC 25922 • Klebsiella pneumoniae ATCC 13883 and ATCC 10031 • Pseudomonas aeruginosa ATCC 27853. • Acinetobacter baumannii ATCC 19606 Bacterial EPI Assays Tier 1 Testing

[4] = system: P. aeruginosa ATCC 27853 pre-exposed to cefepime; test: Pre-exposure bacterial EPI assay; type: cell-based, Pseudomonas aeruginosa
Description: as §2
The principle underlying this pre-exposure is that exposure of the bacteria to sub-inhibitory concentrations of the test antibiotic will induce expression of efflux pumps, if any, and may represent the scenario in vivo more accurately.

[5] = system: P. aeruginosa [ATCC 27853]; test: Mouse septicemia model of infection; type: in vivo, Pseudomonas aeruginosa; details: mice, Experiment #489, cefepime, 10 mg/ml b.i.d.
Description: A general method for the in vivo assessment of bacterial EPIs is complicated by the fact that that both the antibiotic and the EPI need to be present for synergy to be achieved. A general method was discovered that has proven to be effective in establishing the relative efficacy of bacterial EPIs in a mouse septicemia model. The bacterial EPI is administered initially intravenously to mice with septicemia, followed 5 minutes later by the intravenous administration or oral administration of the antibiotic. A second administration of the EPI is then administered subcutaneously after an additional 5 minutes to act as a booster, followed by the final administration of the antibiotic either intravenously or orally after the second administration of the EPI. […] In a few instances, a second regiment of both EPI and antibiotic as administered on day 1 was required after 24 hours to affect cures.
Determination of the in vivo efficacy of bacterial efflux pump inhibitors (EPIs) can be efficiently determined using a mouse septicemia model of infection. The systemic infection is initiated by a 500 ul intraperitoneal injection of an inoculum containing bacteria (such as P. aeruginosa [ATCC 27853]) at a concentration of approximately 5×10^5 cells in 5% mucin in Swiss Webster female mice. […]

[6] = P. aeruginosa ATCC 27853, 6.25 μg/mL of the EPI

Cl.Cl.NC[C@@H]1CNC(CNC(=O)c2cc(-c3ccc(C(F)(F)F)cc3)cc(-c3ccc(C(F)(F)F)cc3)c2)C1 (stereo in doubt) [Example 9, N-(((2R,4R)-4-(Aminomethyl)pyrrolidin-2-yl)methyl)-4,4″-bis(trifluoromethyl)-[1,1′:3′,1″-terphenyl]-5′-carboxamide hydrochloride salt]
Enhanced Activity in P. aeruginosa (fold enhancement of antibiotic activity) (P. aeruginosa ATCC 27853 [1]; EPI at 12.5 μg): 4x/12.5 μg

Cl.Cl.N[C@@H]1CN[C@H](CNC(=O)c2cc(-c3ccc(F)cc3)cc(-c3ccc(F)cc3)c2)C1 [Example 1, N-(((2S, 4S)-4-aminopyrrolidin-2-yl)methyl)-4,4″-difluoro-[1, 1′:3′, 1′-terphenyl]-5′-carboxamide dihydrochloride]
Enhanced Activity in E. coli (fold enhancement of antibiotic activity) ([2]; EPI at 6.25 μg): 64x/6.25 μg
Enhanced Activity in P. aeruginosa (fold enhancement of antibiotic activity) (P. aeruginosa ATCC 27853 [1]; EPI at 6.25 μg): 2x/6.25 μg

CC(C)(C(=O)NC[C@@H]1C[C@H](N)CN1)c1cc(-c2ccc(F)cc2)cc(-c2ccc(F)cc2)c1.Cl.Cl [Example 2]
Enhanced Activity in E. coli (fold enhancement of antibiotic activity) ([2]; EPI at 6.25 μg): 8x/6.25 μg

CC(C)(N)C1CN[C@H](CNC(=O)c2cc(-c3ccc(F)cc3)cc(-c3ccc(F)cc3)c2)C1.Cl.Cl (stereo partly drawn) [Example 3, N-(((2S)-4-(2-aminopropan-2-yl)pyrrolidin-2-yl)methyl)-4,4″-difluoro-[1,1′:3′, 1″-terphenyl]-5′-carboxamide dihydrochloride]
Enhanced Activity in E. coli (fold enhancement of antibiotic activity) ([2]; EPI at 12.5 μg): 1024x/12.5 μg
Enhanced Activity in P. aeruginosa (fold enhancement of antibiotic activity) (P. aeruginosa ATCC 27853 [1]; EPI at 12.5 μg): 32x/12.5 μg

Cl.Cl.NC[C@@H]1CN[C@H](CNC(=O)c2cc(-c3ccc(F)cc3)cc(-c3ccc(F)cc3)c2)C1 [Example 4, N-(((2S,4R)-4-(aminomethyl)pyrrolidin-2-yl)methyl)-4,4″-difluoro-[1,1′:3′,1″-terphenyl]-5′-carboxamide dihydrochloride]
Enhanced Activity in E. coli (fold enhancement of antibiotic activity) ([2]; EPI at 3.125 μg): 512x/3.125 μg
MIC of levofloxacin in the presence of EPI (P. aeruginosa ATCC 27853 [1]; P. aeruginosa ATCC 27853, 6.25 μg/mL (½×MIC) of the EPI): 0.016 µg/mL
MIC of cefepime in the presence of EPI (P. aeruginosa ATCC 27853 [1]; [6]): 0.125 µg/mL
decrease of the MIC of cefepime relative to absence of EPI (P. aeruginosa ATCC 27853 [1]; [6]): 16 fold
reduction of the MIC of levofloxacin relative to absence of EPI (P. aeruginosa ATCC 27853 [1]; [6]): 64 fold
Enhanced Activity in P. aeruginosa (fold enhancement of antibiotic activity) (P. aeruginosa ATCC 27853 [1]; EPI at 6.25 μg): 64x/6.25 μg
MIC (P. aeruginosa ATCC 27853 [3]): 12.5 µg/mL
MIC of cefepime against cefepime-exposed P. aeruginosa in the presence of EPI ([4]; 6.25 μg/mL of the EPI): 0.25 µg/mL
reduction of MIC of cefepime against cefepime-exposed P. aeruginosa ([4]; 6.25 μg/mL of the EPI): 64 fold
% Survival (72 hr) Antibiotic + EPI ([5]; 250 ul + Example 4, 2.0 mg/ml b.i.d.): 100%

Cl.Cl.NC[C@H]1CN[C@H](CNC(=O)c2cc(-c3ccc(F)cc3)cc(-c3ccc(F)cc3)c2)C1 [Example 5, N-(((2S,4S)-4-(aminomethyl)pyrrolidin-2-yl)methyl)-4,4″-difluoro-[1,1′:3′,1″-terphenyl]-5′-carboxamide dihydrochloride]
Enhanced Activity in E. coli (fold enhancement of antibiotic activity) ([2]; EPI at 6.25 μg): 1024x/6.25 μg
Enhanced Activity in P. aeruginosa (fold enhancement of antibiotic activity) (P. aeruginosa ATCC 27853 [1]; EPI at 6.25 μg): 32x/6.25 μg

Cl.Cl.NC[C@@H]1CN[C@H](COc2cc(-c3ccc(F)cc3)cc(-c3ccc(F)cc3)c2)C1 [Example 6, ((3R,5S)-5-(((4,4″-difluoro-[1,1′:3′,1″-terphenyl]-5′-yl)oxy)methyl)pyrrolidin-3-yl)methanamine dihydrochloride]
Enhanced Activity in E. coli (fold enhancement of antibiotic activity) ([2]; EPI at 3.125 μg): 32x/3.125 μg
Enhanced Activity in P. aeruginosa (fold enhancement of antibiotic activity) (P. aeruginosa ATCC 27853 [1]; EPI at 6.25 μg): 1x/6.25 μg

Cl.Cl.NC[C@H]1CN[C@H](COc2cc(-c3ccc(F)cc3)cc(-c3ccc(F)cc3)c2)C1 [Example 7]
Enhanced Activity in E. coli (fold enhancement of antibiotic activity) ([2]; EPI at 3.125 μg): 64x/3.125 μg
Enhanced Activity in P. aeruginosa (fold enhancement of antibiotic activity) (P. aeruginosa ATCC 27853 [1]; EPI at 6.25 μg): 2x/6.25 μg

NC[C@@H]1C[C@H](Oc2cc(-c3ccc(F)cc3)cc(-c3ccc(F)cc3)c2)CN1 [Example 8, ((2S,4S)-4-((4,4″-difluoro-[1,1′:3′,1″-terphenyl]-5′-yl)oxy)pyrrolidin-2-yl)methanamine]
Enhanced Activity in E. coli (fold enhancement of antibiotic activity) ([2]; EPI at 6.25 μg): 2x/6.25 μg
Enhanced Activity in P. aeruginosa (fold enhancement of antibiotic activity) (P. aeruginosa ATCC 27853 [1]; EPI at 12.5 μg): 1x/12.5 μg

CC(C)(C(=O)NC[C@@H]1C[C@H](CN)CN1)c1cc(-c2ccc(F)cc2)cc(-c2ccc(F)cc2)c1 [Example 10, N-(((2S,4R)-4-(aminomethyl)pyrrolidin-2-yl)methyl)-2-(4,4″-difluoro-[1,1′:3′,1″-terphenyl]-5′-yl)-2-methylpropanamide hydrochloride salt]
Enhanced Activity in E. coli (fold enhancement of antibiotic activity) ([2]; EPI at 6.25 μg): 512x/6.25 μg

CN1C[C@H](CN)C[C@H]1CNC(=O)c1cc(-c2ccc(F)cc2)cc(-c2ccc(F)cc2)c1 [Example 11, N-(((2S,4S)-4-(aminomethyl)-1-methylpyrrolidin-2-yl)methyl)-4,4″-difluoro-[1,1′:3′,1″-terphenyl]-5′-carboxamide hydrochloride salt]
Enhanced Activity in E. coli (fold enhancement of antibiotic activity) ([2]; EPI at 6.25 μg): 128x/6.25 μg

CN(C)C[C@H]1CN[C@H](CNC(=O)c2cc(-c3ccc(F)cc3)cc(-c3ccc(F)cc3)c2)C1 [Example 12, N-(((2S,4R)-4-((dimethylamino)methyl)pyrrolidin-2-yl)methyl)-4,4″-difluoro-[1,1′:3′,1″-terphenyl]-5′-carboxamide hydrochloride salt]
Enhanced Activity in E. coli (fold enhancement of antibiotic activity) ([2]; EPI at 25 μg): 2x/25 μg

CNC[C@@H]1CN[C@H](CNC(=O)c2cc(-c3ccc(F)cc3)cc(-c3ccc(F)cc3)c2)C1 [Example 14, 4,4″-difluoro-N-(((2S,4R)-4-((methylamino)methyl)pyrrolidin-2-yl)methyl)-[1,1′:3′,1″-terphenyl]-5′-carboxamide hydrochloride salt]
Enhanced Activity in E. coli (fold enhancement of antibiotic activity) ([2]; EPI at 6.25 μg): 64x/6.25 μg
Enhanced Activity in P. aeruginosa (fold enhancement of antibiotic activity) (P. aeruginosa ATCC 27853 [1]; EPI at 12.5 μg): 32x/12.5 μg

CO/N=C(\C(=O)N[C@@H]1C(=O)N2C(C(=O)[O-])=C(C[N+]3(C)CCCC3)CS[C@H]12)c1csc(N)n1 [cefepime, reference compound]
increase of MIC of cefepime against pre-exposed versus unexposed P. aeruginosa ([4]; pre-exposed to cefepime, no EPI): 8 fold
% Survival (72 hr) Antibiotic Only ([5]; 250 ul): 0%****
